From patent US20200017496A1 (priority 2017, published 2020)
Where two headings read alike, the source gives them in different places.

Experiments:
Type in all cases: cell-based
[1] = system: Proteus mirabilis (PMI) isolates; test: microbe, parasite or virus in culture; conditions: for MIC ATB in combination: AF1 @ 4 μg/mL; for MIC: Proteus mirabilis, ATB alone, read-out: MIC
Protocol: (§1) Method 2: MIC of Compounds Alone and Combined with Antibacterials Against Bacterial Isolates.
(§2) Compounds of the present invention were assessed against genotyped bacterial strains (Table 3, 4) alone or in combination with an antibacterial (Table 2). […] Log phase bacterial suspensions were adjusted to a final density of 5·10^5 CFU/mL in cation-adjusted Mueller-Hinton broth (ca-MHB; Becton-Dickinson and Company) and added to each well (98 μL). Microplates were incubated for 16-20 h at 35° C. in ambient air. The MIC of the compounds was defined as the lowest concentration of said compounds that prevented bacterial growth as read by visual inspection. The MIC of ATB at each compound concentration was defined as the lowest concentration of ATB that prevented bacterial growth as read by visual inspection.

[2] = system: Enterobacter aerogenes (EAE) isolates; test: MIC of compounds alone and combined with antibacterials, broth microdilution (CLSI); conditions: for MIC ATB in combination: AF1 @ 4 μg/mL; for MIC: Klebsiella aerogenes
Protocol: as §1, §2

[3] = system: Citrobacter freundii (CFR) isolates; test: as above; conditions: for MIC: Citrobacter freundii
Protocol: as §1, §2

[4] = system: Klebsiella pneumoniae (KPN) isolates; test: as above; conditions: for MIC ATB in combination: AF1 @ 4 μg/mL; for MIC: Klebsiella pneumoniae
Protocol: as §1, §2

CO/N=C(\C(=O)N[C@@H]1C(=O)N2C(C(=O)O)=C(COC(N)=O)CS[C@H]12)c1ccco1 [FUR, Cefuroxime]
MIC ATB in combination ([1]; PMI UFR82): 4 mg/L | MIC ATB in combination ([1]; PMI UFR120): 1 mg/L | MIC ATB in combination ([1]; PMI UFR121): 2 mg/L | MIC ATB in combination ([1]; PMI UFR122): 1 mg/L | MIC ATB in combination ([1]; PMI UFR123): 1 mg/L | MIC ATB in combination ([1]; PMI UFR124): 1 mg/L | MIC ATB in combination ([1]; PMI UFR125): 1 mg/L | MIC ATB in combination ([1]; PMI UFR126): 1 mg/L | MIC ATB in combination ([1]; PMI UFR127): 1 mg/L | MIC ATB in combination ([1]; PMI UFR129): 4 mg/L | MIC ATB in combination ([1]; PMI UFR130): 4 mg/L | MIC ATB in combination ([1]; PMI UFR237): 4 mg/L | MIC ([1]; strain PMI UFR82 (CMY-2)): 16 mg/L | MIC ([1]; strain PMI UFR120 (TEM-1, SHV-11, CTX-M-14)): > 256 mg/L | MIC ([1]; strain PMI UFR121 (TEM-1, TEM-52)): > 256 mg/L | MIC ([1]; strain PMI UFR122 (TEM-1, CTX-M-15)): > 256 mg/L | MIC ([1]; strain PMI UFR123 (CTX-M-1)): > 256 mg/L | MIC ([1]; strain PMI UFR124 (CTX-M-2)): > 256 mg/L | MIC ([1]; strain PMI UFR125 (CTX-M-71)): > 256 mg/L | MIC ([1]; strain PMI UFR126 (TEM-2, PER-1)): > 256 mg/L | MIC ([1]; strain PMI UFR127 (VEB-1)): > 256 mg/L | MIC ([1]; strain PMI UFR129 (TEM-1, VEB-6)): > 256 mg/L | MIC ([1]; strain PMI UFR130 (CMY-2)): 8 mg/L | MIC ([1]; strain PMI UFR237 (VEB-6)): > 256 mg/L | MIC ATB in combination ([2]; EAE 49469): 64 mg/L | MIC ATB in combination ([2]; EAE 200261): 64 mg/L | MIC ATB in combination ([2]; EAE UFR199): 8 mg/L | MIC ATB in combination ([2]; EAE UFR201): 2 mg/L | MIC ATB in combination ([2]; EAE UFR202): 32 mg/L | MIC ATB in combination ([2]; EAE UFR213): 8 mg/L | MIC [2]: > 256 mg/L | MIC ([2]; strain EAE 49469 (AmpC), ATB alone, read-out: MIC): > 128 mg/L | MIC ([2]; strain EAE 200261 (TEM-x, AmpC), ATB alone, read-out: MIC): > 256 mg/L | MIC ([2]; strain EAE UFR201 (TEM-1, SHV-12, CTX-M-15), ATB alone, read-out: MIC): > 256 mg/L | MIC ([2]; strain EAE UFR202 (TEM-24), ATB alone, read-out: MIC): > 256 mg/L | MIC ([2]; strain EAE UFR213 (TEM-24), ATB alone, read-out: MIC): > 256 mg/L | MIC ATB in combination ([3]; CFR UFR10, AF1 @ 4 μg/mL): 8 mg/L | MIC ATB in combination ([3]; CFR UFR11, AF1 @ 4 μg/mL): >128 mg/L | MIC ATB in combination ([3]; CFR UFR83, AF1 @ 4 μg/mL): >128 mg/L | MIC ATB in combination ([3]; CFR UFR146, AF1 @ 4 μg/mL): 16 mg/L | MIC ATB in combination ([3]; CFR UFR248, AF1 @ 4 μg/mL): 8 mg/L | MIC ATB in combination ([3]; CFR UFR249, AF1 @ 4 μg/mL): 8 mg/L | MIC ATB in combination ([3]; CFR UFR250, AF1 @ 4 μg/mL): 8 mg/L | MIC [3]: > 256 mg/L | MIC ([3]; ATB alone, strain CFR UFR253 (TEM-1, SHV-12, OXA-48), read-out: MIC): 32 mg/L | MIC ([3]; ATB alone, strain CFR UFR254 (VEB-1b, OXA-48, qnrA), read-out: MIC): 32 mg/L | MIC ([3]; strain CFR UFR10 (OXA-48), ATB alone, read-out: MIC): > 256 mg/L | MIC ([3]; strain CFR UFR11 (TEM-1, OXA-1, OXA-48), ATB alone, read-out: MIC): > 256 mg/L | MIC ([3]; strain CFR UFR83 (TEM-3, AmpC), ATB alone, read-out: MIC): > 256 mg/L | MIC ([3]; strain CFR UFR248 (CTX-M-15), ATB alone, read-out: MIC): > 256 mg/L | MIC ([3]; strain CFR UFR249 (TEM-1, CTX-M-15), ATB alone, read-out: MIC): > 256 mg/L | MIC ([3]; strain CFR UFR250 (TEM-1, SHV-28, CTX-M-15), ATB alone, read-out: MIC): > 256 mg/L | MIC ATB in combination ([3]; strain CFR UFR253, antibacterial combined with AF1 @ 4 μg/mL): 4 mg/L | MIC ATB in combination ([3]; strain CFR UFR254, antibacterial combined with AF1 @ 4 μg/mL): 2 mg/L | MIC ATB in combination ([4]; KPN 6299): 16 mg/L | MIC ATB in combination ([4]; KPN 110376): 4 mg/L | MIC ATB in combination ([4]; KPN 131119): 8 mg/L | MIC ATB in combination ([4]; KPN 140513): 32 mg/L | MIC ATB in combination ([4]; KPN 160143): 4 mg/L | MIC ATB in combination ([4]; KPN 190128): 16 mg/L | MIC ATB in combination ([4]; KPN 190270): 16 mg/L | MIC ATB in combination ([4]; KPN 190425): 4 mg/L | MIC ATB in combination ([4]; KPN 190551): 4 mg/L | MIC ATB in combination ([4]; KPN 200047): 2 mg/L | MIC ATB in combination ([4]; KPN 200327): 2 mg/L | MIC ATB in combination ([4]; KPN 260251): 8 mg/L | MIC ATB in combination ([4]; KPN 260252): 32 mg/L | MIC ATB in combination ([4]; KPN 260376): 2 mg/L | MIC ATB in combination ([4]; KPN 270077): 16 mg/L | MIC ATB in combination ([4]; KPN 700603): 16 mg/L | MIC ATB in combination ([4]; KPN ARA): 16 mg/L | MIC ATB in combination ([4]; KPN BAA-1898): 4 mg/L | MIC ATB in combination ([4]; KPN LIB): 8 mg/L | MIC ATB in combination ([4]; KPN UFR22_O): 8 mg/L | MIC ATB in combination ([4]; KPN UFR23): 4 mg/L | MIC ATB in combination ([4]; KPN UFR24): 16 mg/L | MIC ATB in combination ([4]; KPN UFR25): 4 mg/L | MIC ATB in combination ([4]; KPN UFR27): 32 mg/L | MIC ATB in combination ([4]; KPN UFR28): 4 mg/L | MIC ATB in combination ([4]; KPN UFR65): 16 mg/L | MIC ATB in combination ([4]; KPN UFR66): 32 mg/L | MIC ATB in combination ([4]; KPN UFR67): 32 mg/L | MIC ATB in combination ([4]; KPN UFR68): 8 mg/L | MIC ATB in combination ([4]; KPN UFR76): >128 mg/L | MIC ATB in combination ([4]; KPN UFR77): 32 mg/L | MIC ATB in combination ([4]; KPN UFR78): >128 mg/L | MIC ATB in combination ([4]; KPN UFR79): 32 mg/L | MIC ATB in combination ([4]; KPN UFR80): 16 mg/L | MIC ATB in combination ([4]; KPN UFR81): 32 mg/L | MIC ATB in combination ([4]; KPN UFR215): 16 mg/L | MIC ATB in combination ([4]; KPN UFR216): 4 mg/L | MIC ATB in combination ([4]; KPN UFR217): 2 mg/L | MIC ATB in combination ([4]; KPN UFR219): 8 mg/L | MIC ATB in combination ([4]; KPN UFR220): 16 mg/L | MIC ATB in combination ([4]; KPN UFR221): 4 mg/L | MIC ATB in combination ([4]; KPN UFR222): 64 mg/L | MIC ATB in combination ([4]; KPN UFR227O): 64 mg/L | MIC [4]: > 256 mg/L | MIC ([4]; BAA1898, strain KPN BAA-1898 (TEM-1, SHV-11, SHV-12, KPC-2), ATB alone, read-out: MIC): > 512 mg/L | MIC ([4]; strain KPN 6299 (TEM-1, SHV-11, OXA-163), ATB alone, read-out: MIC): > 512 mg/L | MIC ([4]; strain KPN 700603 (SHV-18, OXA-2), ATB alone, read-out: MIC): 32 mg/L | MIC ([4]; strain KPN LIB (SHV-11, OXA-48), ATB alone, read-out: MIC): 16 mg/L | MIC ([4]; strain KPN UFR22_O (TEM-1, SHV-1, OXA-48), ATB alone, read-out: MIC): 32 mg/L | MIC ([4]; strain KPN UFR23 (TEM-1, SHV-1, OXA-48), ATB alone, read-out: MIC): 8 mg/L | MIC ([4]; strain KPN UFR24 (TEM-1, SHV-2, SHV-11, OXA-1, OXA-48, OXA-47), ATB alone, read-out: MIC): 128 mg/L | MIC ([4]; strain KPN UFR77 (CMY-2), ATB alone, read-out: MIC): 64 mg/L | MIC ([4]; strain KPN UFR80 (SHV-11, DHA-1, OXA-1), ATB alone, read-out: MIC): 32 mg/L
